Test results taken from patent publication US8853264B2, “Use of lignan compounds for treating or preventing inflammatory disease” (Newtree Industry Co., Ltd., priority 2005, dated 2014).

Experiments:
IL-13 mRNA = IL-13 mRNA level in skin lesion (RT-PCR); assay type: in vivo, NC/Nga mice
Experimental: In order to induce atopic dermatitis, 100 mg of mite antigen cream was applied on the ear, occipital region and back of NC/Nga mouse (9 to 11 weeks old), except for the negative control group, 3 times a week, 2 hours after the application of 4% SDS solution. Three weeks later, it was observed whether atopic dermatitis was induced by checking skin rash, erythema, cornification, or the like. Atopic dermatitis was induced in all groups except for the negative control group. […] Transepidermal water loss (TEWL), skin hydration and erythema index were measured one day before the end of the test. […]
After the end of the experiment, skin tissue was isolated from the occipital region to the back of the mouse, immersed in liquid nitrogen, pulverized using a mortar, dissolved in 500 μL of TRIzol® (InvitrogenLife Technologies, USA), and then homogenized using a homogenizer in order to measure mRNA level of cytokines in skin lesion. […] After the centrifuge, the supernatant was discarded and the remaining pellets were washed 2 times with 100% ethanol, dried, and then subjected to RNA quantification by spectrophotometry. […]

[1] = Airway hypersensitivity test, allergen-induced asthma; assay type: in vivo, C57BL/6 (B6) male mice; conditions: oral administration in corn oil, every day; vs vehicle group; p<0.05
Experimental: (§1) 5 μL of allergen, AP (aspergillus protease, 1 mg/mL, Sigma-Aldrich, St. Louis, Mo.) was mixed with 45 μL of OVA (chicken egg ovalbumin, 0.5 mg/mL, Sigma-Aldrich). After 3 intraperitoneal injections with 4-day intervals, asthma was induced by 2 intranasal challenges with 4-day interval. The intranasal challenge was performed under isoflurane inhalational anesthesia. Macelignan dissolved in corn oil was orally administered every day.
(§2) Within 24 hours after the last allergen challenge, the mouse was anesthetized by intraperitoneal injection of 0.1 mg/g sodium pentobarbital. After tracheal intubation, flexiVent (Scireq®, Montreal, Canada) was connected to maintain stable ventilation. Thereafter, striated muscle was relaxed by intravenous (IV) administration of 0.08 mg/kg pancuronium (Sigma-Aldrich). Following airway hypersensitivity test by IV administration of acetylcholine (Sigma-Aldrich), 1 mL of DPBS (Dulbecco's phosphate buffered saline) was injected twice into the intubation tube using a syringe for bronchioalveolar lavage. […]
For airway hypersensitivity test, the mouse was anesthetized using sodium pentobarbital and, after tracheal intubation, flexiVent was connected to maintain stable ventilation. […] Immediately after IV administration of acetylcholine, airway resistance was measured 3 times by snapshot. The mean value was recorded as airway resistance.

eosinophils = assay: Counting of immune cells in bronchioalveolar lavage (BAL) fluid, asthma model; assay type: in vivo, C57BL/6 (B6) male mice; conditions: oral 400 μg/g and 800 μg/g
Experimental: as §1
as §2, with “lavage. Thereafter, the chest was opened and the lungs were subjected to ELISpot assay.” for “lavage.”
When asthma is induced, various inflammatory cells increase in the airway. […] After performing BAL once again and collecting the BAL fluid, its volume was measured. […]

IL-4 secreting cells = assay: Counting of IL-4 secreting cells in the lungs (ELISpot), asthma model; assay type: in vivo, C57BL/6 (B6) male mice; conditions: oral 400 μg/g and 800 μg/g; vs vehicle (corn oil) group
Experimental: as §1
as §2, with “lavage. Thereafter, the chest was opened and the lungs were subjected to ELISpot assay.” for “lavage.”
When asthma is induced in a mouse, Th2 cells in the lungs increase. […] After addition of substrate dissolved in 0.6% low melting agarose followed by incubation at 4° C., spots were counted within 24 hours to count the number of IL-4 secreting cells in the lungs.

## COc1cc(C[C@H](C)[C@H](C)Cc2ccc3c(c2)OCO3)ccc1O (single isomer, unassigned) [macelignan]
IL-13 mRNA; oral administration 50 and 150 mg/kg
  IL-13 mRNA level in skin lesion: statistically significant effect of decreasing IL-13 mRNA level
IL-13 mRNA; topical application 20 and 60 mg/kg
  IL-13 mRNA level in skin lesion: effect of decreasing IL-13 mRNA level
[1]
  airway hypersensitivity: statistically significant decrease of airway hypersensitivity
eosinophils
  other immune cells in the BAL fluid: Decrease of other immune cells was not observed
eosinophils; vs vehicle (corn oil) group
  eosinophils in the BAL fluid: decreased eosinophils
IL-4 secreting cells
  IL-4 secreting cells in the lungs: decreased IL-4 secreting cells
